The results in this text go back to patent US5063243A, “Derivative of caffeic acid and pharmaceutical composition containing the same” (Suntory, Ltd., priority 1988, dated 1991).

SMILES strings stand for the structures.

What all share (format): biochemical
Experiment [1] has as its target T1, 12-lipoxygenase (Rattus norvegicus, UniProt F1LQ70).
T1 construct: Washed platelet was prepared in the usual way; from tissue; host or cells: rat blood platelets (Method 1: washed platelets; Method 2: frozen, thawed and ultrasonified platelets; Method 3: platelet soluble fraction after freeze-thaw and centrifugation)
T1 sequence (F1LQ70 1-663): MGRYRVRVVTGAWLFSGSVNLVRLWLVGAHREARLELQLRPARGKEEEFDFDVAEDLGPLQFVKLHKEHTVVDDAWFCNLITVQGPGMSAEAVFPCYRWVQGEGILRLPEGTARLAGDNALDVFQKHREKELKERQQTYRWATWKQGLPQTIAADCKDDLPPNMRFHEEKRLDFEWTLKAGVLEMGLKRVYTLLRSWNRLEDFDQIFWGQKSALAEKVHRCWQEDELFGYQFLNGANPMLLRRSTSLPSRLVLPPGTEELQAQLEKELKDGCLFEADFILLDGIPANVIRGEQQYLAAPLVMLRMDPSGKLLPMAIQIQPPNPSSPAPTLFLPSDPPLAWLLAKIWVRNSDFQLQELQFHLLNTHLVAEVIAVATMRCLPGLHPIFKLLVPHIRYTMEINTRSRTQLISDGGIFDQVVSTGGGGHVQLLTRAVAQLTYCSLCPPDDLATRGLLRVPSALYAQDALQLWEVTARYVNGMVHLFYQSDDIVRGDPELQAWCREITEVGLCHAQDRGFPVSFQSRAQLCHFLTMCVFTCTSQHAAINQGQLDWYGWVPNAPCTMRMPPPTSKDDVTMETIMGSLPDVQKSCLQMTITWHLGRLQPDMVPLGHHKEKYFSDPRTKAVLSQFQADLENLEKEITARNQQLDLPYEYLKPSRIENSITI
Description: 12-lipoxygenase inhibitory activity, Method 3 (rat platelet soluble fraction, 12-HETE production). The note with it: 5 min, sample compound 10 μM, arachidonic acid 40 μM, 5 minutes at 37° C., control without sample compound = 100%, read-out: production index of 12-HETE, Method 3 (%). Here is the method: (§1) The 12-lipoxygenase inhibitory activity of the compounds of the present invention was measured by conducting the three types of pharmacological tests described below.
The platelet-rich plasma obtained in the same way as described in Method 2 was washed successively with isotonic buffer solution (A) and isotonic buffer solution (B) [134 mM NaCl, 5 mM D-glucose, 0.1 mM DETA, 0.1 mM EGTA, 15 mM Tris-HCl (pH=7.4)] in that order, and suspended in a hypotonic buffer solution (C) [25 mM Tris-HCl (pH=7.7)]. The suspension was treated by a "freeze-thaw" procedure three times and centrifuged at 10500× g for 60 minutes. An aliquot of the supernatant (platelet soluble fraction) was used as the enzyme solution. To the hypotonic buffer solution (C) were added 1 mM GSH, [^14 C]arachidonic acid (0.025 μCi) (final concentration: 40 μM), the sample compound (final concentration: 10 μM) and the enzyme solution (50 μg protein) and the mixture was reacted for 5 minutes at 37° C. The index of 12-lipoxygenase inhibitory activity was obtained in the same way as described in Method 2.
(§2) The production indexes of 12-HETE under the inhibitory influence of the compounds of the present invention are shown in Table 2, where the production amount of the control experiment (in the absence of the sample compound) is 100%.

The target of experiment [2] is T1, 12-lipoxygenase. Kind of experiment: 12-lipoxygenase inhibitory activity, Method 2 (ultrasonified rat platelet enzyme solution, 12-HETE production). Conditions: 5 min, sample compound 1 μM, arachidonic acid 4.3 μM, 5 minutes at 37° C., control without sample compound = 100%, read-out: production index of 12-HETE, Method 2 (%). Here is the method: The 12-lipoxygenase inhibitory activity of the compounds of the present invention was measured by conducting the three types of pharmacological tests described below. Citrated blood was collected from the heart of a rat and platelet-rich plasma was prepared in the usual way. The plasma was washed twice with isotonic buffer solution (A) [134 mM NaCl, 5 mM D-glucose, 1 mM EDTA, 1 mM EGTA, 15 mM Tris-HCl (pH=7.4)], frozen and stored at -80° C. It was thawed before use, ultrasonified in ice water and used as the enzyme solution. To the isotonic buffer solution (A) were added 1 mM GSH, the sample compound (final concentration: 1 μM) and the enzyme solution (300 to 500 μg protein) and the mixture was pre-incubated for 5 minutes at 37° C.; then [^14 C]arachidonic acid (0.05 μCi) (final concentration: 4.3 μM) was further added and reacted for 5 minutes. […] The reduction in 12-HETE production was used as the index of 12-lipoxygenase inhibitory activity.

For experiment [3], the target named is T1, 12-lipoxygenase. Kind of experiment: 12-lipoxygenase inhibitory activity, Method 1 (washed rat platelet, 12-HETE production). Conditions: sample compound 10 μM, 3 to 5 minutes at 37° C., control without sample compound = 100%, read-out: production index of 12-HETE, Method 1 (%). Here is the method:
as §1
Citrated blood was collected from the abdominal aorta of a rat. Washed platelet was prepared in the usual way, diluted with phosphate buffer (pH=8.0) containing 0.45% NaCl and used as the enzyme solution. To the solution were added the sample compound (10 μM), [^14 C]arachidonicacid (0.2 μCi) and arachidonic acid (3 μg) and the mixture was reacted for 3 to 5 minutes at 37° C. The reaction mixture was developed by thin layer chromatography and 12-HETE was identified by a radio chromato scanner. The reduction in 12-HETE production which resulted was used as the index of 12-lipoxygenase inhibitory activity.
as §2

Turning to `O=c1cc(-c2ccccc2)oc2cc(O)c(O)c(O)c12` [Baicalein, baicalein, reference compound], the activity at 10 µM on 12-lipoxygenase [1] stood at 22.7%; at 12-lipoxygenase [3] it was 27%. Moreover, the activity at 1 µM at 12-lipoxygenase [2] came out at 9.8%.
Regarding `CCOC(=O)C(C#N)=Cc1ccc(O)c(O)c1` [Compound No. 1, Ethyl 2-cyano-3-(3,4-dihydroxyphenyl)-2-propenoate], on 12-lipoxygenase [3], the activity at 10 µM turned out to be 38.1%.
For the compound `COC(=O)C(C#N)=Cc1ccc(O)c(O)c1` [Compound No. 5, methyl 2-cyano-3-(3,4-dihydroxyphenyl)-2-propenoate], on 12-lipoxygenase [3], the activity at 10 µM turned out to be 36%.
Same read-out and setting: to `CC(C)OC(=O)C(C#N)=Cc1ccc(O)c(O)c1` [Compound No. 6, isopropyl 2-cyano-3-(3,4-dihydroxyphenyl)-2-propenoate] belongs 31.4%.
For the compound `N#CC(=Cc1ccc(O)c(O)c1)C(=O)OCCc1ccccc1` [Compound No. 9, Phenethyl 2-cyano-3-(3,4-dihydroxyphenyl)-2-propenoate], at 12-lipoxygenase [1], the activity at 10 µM stood at 25.1%. At 12-lipoxygenase [2], the activity at 1 µM amounted to 10%.
For the compound `N#CC(=Cc1ccc(O)c(O)c1)C(=O)OCCCc1ccccc1` [compound 10, Phenylpropyl 2-cyano-3-(3,4-dihydroxyphenyl)-2-propenoate], on 12-lipoxygenase [2], the activity at 1 µM came to 12.1%.
Take `N#CC(=Cc1ccc(O)c(O)c1)C(=O)OCCCCc1ccccc1` [compound 11, Phenylbutyl 2-cyano-3-(3,4-dihydroxyphenyl)-2-propenoate]: on 12-lipoxygenase [2], the activity at 1 µM was determined as 14.2%.
For `COc1ccc(CCOC(=O)C(C#N)=Cc2ccc(O)c(O)c2)cc1` [compound 13, 4-Methoxyphenethyl 2-cyano-3-(3,4-dihydroxyphenyl)-2-propenoate], the activity at 10 µM at 12-lipoxygenase [1] was 19.5%.
For `COc1ccccc1CCOC(=O)C(C#N)=Cc1ccc(O)c(O)c1` [compound 14, 2-Methoxyphenethyl 2-cyano-3-(3,4-dihydroxyphenyl)-2-propenoate], at 12-lipoxygenase [1], the activity at 10 µM is 19.1%.
For the compound `N#CC(=Cc1ccc(O)c(O)c1)C(=O)OCCc1cccs1` [compound 15, 2-(2-Thienyl)ethyl 2-cyano-3-(3,4-dihydroxyphenyl)-2-propenoate], on 12-lipoxygenase [2], the activity at 1 µM was 8.7%.
With `N#CC(=Cc1ccc(O)c(O)c1)C(=O)OCC=Cc1ccccc1` [compound 17, 3-Phenyl-2-propenyl 2-cyano-3-(3,4-dihydroxyphenyl)-2-propenoate], the activity at 1 µM at 12-lipoxygenase [2] was found to be 13.2%.
Consider `N#CC(=Cc1ccc(O)c(O)c1)C(=O)OCCOc1ccccc1` [compound 18, 2-Phenoxyethyl 2-cyano-3-(3,4-dihydroxyphenyl)-2-propenoate], for which the activity at 1 µM at 12-lipoxygenase [2] turned out to be 8.5%.
